According to patent publication US20030158213A1, “Xanthine oxidase inhibition as a strategy to alleviate oxidative impairment of vascular function” (priority 2001, published 2003):
“Also recorded” adds a separate entry of the source. Where two headings read alike, the source gives them in different places.

Tests used:
aorta of SCD mice = assay: Vessel O2.- production by coelenterazine-enhanced chemiluminescence; type: cell-based, mouse; settings: for rates of O2.— production enhanced by xanthine: SCD mouse vessels pretreated, CuZn SOD 30 U/ml, allopurinol 100 μM, BOF-4272 25 μM
From the text: Values represent mean±SD (n=4). Statistical analysis was by two-way ANOVA with the Duncan's post hoc test. *, p<0.05 compared to control. +, p<0.05 compared to xanthine-treated sickle cell vessels. **, […] compared to control and all treated vessel groups.

HbA and HbS red cells [1] = assay: Red cell O2.- release by cytochrome c reduction; type: cell-based, human
Experimental: If red blood cells from sickle cell patients produce increased amounts of O2. and H2O2 as compared to red blood cells from healthy donors, then local depletion of .NO might be explained on this basis. […] The mean Hb content of HbA and HbS red cell preparations was similar. DMNQ (100 μM) was added to stimulate red cell O2.— production.
Blood was collected from healthy HbA adult volunteers and homozygous HbS patients in anticoagulated (EDTA) vacu-containers. All individuals were evaluated for cytochrome b5 reductatse and glucose-6-phosphate dehydorgenase activity and none were reported deficient. […] Packed RBCs were diluted to a hematocrit of 2.5% (vol/vol) hemoglobin concentrations as determined with Drabkin's reagent at 540 nm, and rates of O2. release over 2 hours were quanitifed spectrophotometrically by CuZn SOD-inhibitable (100 units/ml, equivalent to approximately 33 ug/ml SOD) reduction of cytochrome c (50 uM) at 550 nm(εM=21 mM^−1cm^−1). In some experiments, O2. release was measured in cells pretreated with DMNQ (Oxis, 100 uM), 3-hydroxy-1,2-dimethyl-4-pyridone (HDP, Aldrich, 0.5 mM), and 4,4-diisothiocyano-2,2 disulfonic acid stilbene (DIDS, Sigma, 200 uM). Possible Hb intereference in determination of rates of cytochrome c reduction was evaluated by performing a singular value decomposition analysis (Matlab, Mathworks, Natick, Mass.).

eNOS = assay: NOS activity in lysates of BAEC after oxidant stress; type: cell-based, bovine; settings: 2 hr, mean ± SEM, n = 3
From the text: Also, XO can serve as a source of H2O2 that in turn will support the oxidative reactions of myeloperoxidase (NO consumption and the generation of chlorinating, nitrating and oxidizing species). Another potential mechanism explaining XO inhibition of endothelial-dependent relaxation and cGMP formation may be oxidant-induced changes in the expression and/or activity of eNOS, especially during more chronic exposure to reactive oxygen species. Bovine aortic endothelial cells (BAEC) were exposed to the redox-cycling quinone 2,3-dimethoxynapthoquinone (DMNQ), which generates controllable and low rates of O2.— and H2O2. Following treatment with DMNQ for 2 hr, the capacity of endothelial cell lysates to oxidize arginine to citrulline was used to indicate eNOS activity. Additional cells were incubated with 10 mU/ml XO for 1 hr, extensively washed and 100 μM xanthine was added during a 1 hr post-incubation period.

HbA and HbS red cells [2] = assay: Red cell nitric oxide consumption; type: cell-based, human; settings: extracellular CuZn SOD 100 U ml^−1; DMNQ 100 μM
From the text: Values represent mean±SEM (n=4 to 14). Statistical analysis was by two-way ANOVA with Tukey post hoc test. *, p<0.05 compared with basal;
Accepting that *NO reacts at almost diffusion-limited rates with O2.— (25), the relative rates of red cell .NO consumption was utilized to probe for differences in both intra-and extracellular O2.— (and possibly LOO—) production by HbA and HbS red cells. […] The presence of endogenous lipid hydroperoxides was undetectable in both HbA and HbS RBC membranes.

[3] = compared to allopurinol; cited from earlier work
xanthine oxidase = molecular target: T1, xanthine oxidase (Homo sapiens, UniProt P47989); settings: intravascular concentration of 10 μg/ml; cited from earlier work
T1 construct: host or cells: forearm blood vessels, in vivo infusion of oxypurinol
T1 sequence (P47989 whole entry, the tested form may be a part): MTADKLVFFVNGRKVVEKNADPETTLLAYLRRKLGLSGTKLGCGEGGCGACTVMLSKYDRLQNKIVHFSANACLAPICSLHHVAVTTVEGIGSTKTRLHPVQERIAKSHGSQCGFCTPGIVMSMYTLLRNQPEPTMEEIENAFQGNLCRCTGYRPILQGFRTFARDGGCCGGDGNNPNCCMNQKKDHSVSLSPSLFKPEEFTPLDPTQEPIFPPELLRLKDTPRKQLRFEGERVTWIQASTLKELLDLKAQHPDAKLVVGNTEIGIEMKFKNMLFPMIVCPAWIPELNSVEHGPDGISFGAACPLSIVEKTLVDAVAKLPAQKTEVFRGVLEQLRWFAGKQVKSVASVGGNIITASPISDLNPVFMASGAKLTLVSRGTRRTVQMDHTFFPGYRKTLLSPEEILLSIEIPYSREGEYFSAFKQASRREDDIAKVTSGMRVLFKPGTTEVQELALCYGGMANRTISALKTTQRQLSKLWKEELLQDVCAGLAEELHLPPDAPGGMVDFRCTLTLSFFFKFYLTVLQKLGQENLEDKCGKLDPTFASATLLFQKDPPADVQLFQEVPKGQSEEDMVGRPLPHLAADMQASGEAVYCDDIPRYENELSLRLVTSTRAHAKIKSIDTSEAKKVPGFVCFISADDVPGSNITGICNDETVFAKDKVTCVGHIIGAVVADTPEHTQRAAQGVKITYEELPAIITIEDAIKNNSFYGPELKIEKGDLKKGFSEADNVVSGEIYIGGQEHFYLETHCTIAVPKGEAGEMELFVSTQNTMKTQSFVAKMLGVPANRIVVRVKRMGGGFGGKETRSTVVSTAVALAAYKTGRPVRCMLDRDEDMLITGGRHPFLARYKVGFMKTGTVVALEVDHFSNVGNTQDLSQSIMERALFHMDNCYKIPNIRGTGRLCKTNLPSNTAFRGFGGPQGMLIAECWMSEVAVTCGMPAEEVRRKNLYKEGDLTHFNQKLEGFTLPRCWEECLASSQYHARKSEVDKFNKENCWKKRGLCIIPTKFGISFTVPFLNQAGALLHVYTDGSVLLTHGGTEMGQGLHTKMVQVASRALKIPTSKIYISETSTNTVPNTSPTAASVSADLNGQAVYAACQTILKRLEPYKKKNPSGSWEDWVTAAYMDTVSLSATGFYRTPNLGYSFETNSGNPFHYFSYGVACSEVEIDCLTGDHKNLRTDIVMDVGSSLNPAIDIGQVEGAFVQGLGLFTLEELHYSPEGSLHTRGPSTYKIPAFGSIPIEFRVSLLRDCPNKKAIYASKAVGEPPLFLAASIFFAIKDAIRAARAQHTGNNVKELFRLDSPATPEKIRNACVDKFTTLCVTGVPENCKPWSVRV

aortic rings [4] = assay: Acetylcholine relaxation of aortic rings from cholesterol-fed rabbits; type: cell-based, rabbit; settings: rings from rabbits on 1% cholesterol diet (6 weeks); heparin 1000 U/ml, allopurinol 100 μM
Experimental: (§1) Increased cell-associated XO can impair endothelial-dependent vascular signaling. When isolated aortic ring segments are incubated with XO for 1 hr and then extensively washed to remove unbound XO, endothelial-dependent relaxations in response to acetylcholine are diminished when the XO substrate xanthine is present in the buffer (FIG. 2A). Inhibition of endothelial-dependent relaxation is abrogated by post-washing treatment of the aortic rings with the XO inhibitor allopurinol, as well as heparin, which inhibits and/or competes for XO binding to endothelial cell GAGs. This ex vivo model of vascular dysfunction reinforces observations made in a model of atherosclerosis. […] Importantly, there appears to be sufficient substrate in the vasculature for XO to catalyze elevated oxidant production, without the need for exogenously added purine.

[5] = at pharmacologic concentrations; cited from earlier work
[6] = system: myocardial ischemia-reperfusion injury; settings: rabbit; cited from earlier work
[7] = system: vessel rings prepared from sickle cell mice; assay: Relaxation of vessel rings from sickle cell mice to NO-dependent stimuli; type: cell-based, mouse; settings: MnTE-2-PyP 50 μM, allopurinol 50 μM
[8] = system: myocardial ischemia-reperfusion injury; settings: clinical; cited from earlier work
guanylate cyclase = assay: Ionomycin-induced .NO-dependent cGMP formation, XO-exposed endothelial cells with smooth muscle cells; type: cell-based, bovine; settings: BAEC exposed to XO 10 mU/ml 3 hr, washed; xanthine 100 μM, ionomycin 6.7 μM, 15 min; cGMP by ELISA
Experimental: Endothelial cells were cultured on Transwell filters and exposed to XO (10 mU/ml) for 3 hr and washed extensively. Filters were then transferred to dishes containing smooth muscle cells and incubated with xanthine (100 μM) and ionomycin (6.7 μM)±allopurinol for 15 min. cGMP was then determined by ELISA. (n=3);
Bovine aortic endothelial cell (BAEC) monolayers having bound and potentially internalized XO manifested an impaired ability to support ionomycin-induced, .NO-dependent cGMP formation by adjacent smooth muscle cells.

aortic rings [9] = assay: Acetylcholine relaxation of aortic rings pre-incubated with XO; type: cell-based; settings: rings incubated with XO 10 mU/ml 1 hr, washed; xanthine in buffer; heparin 10-1000 U/ml, allopurinol 10-250 μM
Experimental: as §1

[10] = system: cultured endothelial cells; settings: heparin on bound XO; enzymes as pretreatment of cells; cited from earlier work

## COc1cc(-c2cnn3c(=O)nc[n-]c23)ccc1[S+]([O-])c1ccccc1.[Na+] (stereo not shown) [BOF-4272]
Aorta of SCD mice
  rates of O2.— production enhanced by xanthine: returned to basal rates

## O=S(=O)(O)c1cc(N=C=S)ccc1C=Cc1ccc(N=C=S)cc1S(=O)(=O)O [DDS, 4,4-diisothiocyano-2,2 disulfonic acid stilbene]
HbA and HbS red cells [1]; pretreated with 200 μM, both HbA and HbS red cells
  decrease in rates of cytochrome c reduction: ~35%

## COC1=C(OC)C(=O)c2ccccc2C1=O [DMNQ, 2,3-dimethoxynapthoquinone]
Aorta of SCD mice; DMNQ 100 μM, positive control, both control and SCD mouse vessels
  rates of O2. production: significantly enhanced rates of O2. production
eNOS; DMNQ 5 μM
  NOS activity: 0.75 ± 0.09 pmol/min/mg prot
eNOS; DMNQ 50 μM
  NOS activity: 0.49 ± 0.60 pmol/min/mg prot
HbA and HbS red cells [2]
  rate of .NO consumption: significantly increased rates of red cell .NO consumption

## Cc1c(O)c(=O)ccn1C [HDP, 3-hydroxy-1,2-dimethyl-4-pyridone]
HbA and HbS red cells [1]; preincubation with HDP 0.5 mM, 150 mm Hg O2, pH 7.4
  decrease in O2.—: ~36%

## O=c1[nH]c(=O)c2c[nH]nc2[nH]1 [Oxypurinol]
[3]
  water solubility: increased water solubility as compared to allopurinol
Xanthine oxidase
  inhibition of xanthine oxidase activity in the forearm blood vessels: greater than 90%

## Oc1ncnc2[nH]ncc12 [allopurinol]
Aortic rings [4]
  restoration of endothelial-dependent relaxation: partially restored endothelial-dependent relaxation; also recorded: significantly reversed
Aorta of SCD mice
  rates of O2.— production enhanced by xanthine: returned to basal rates
[5]
  direct antioxidant properties: no direct antioxidant properties
[6]
  myocardial ischemia-reperfusion injury: attenuated
[7]
  vessel relaxation in response to NO-dependent stimuli: reversal of impaired vessel relaxation
[8]
  myocardial ischemia-reperfusion injury: attenuated
Guanylate cyclase
  reversal of XO inhibition of .NO-mediated cGMP formation: reversible
Aortic rings [9]
  reversal of XO-induced reduction of vasodilation in response to acetylcholine: reversible; also recorded: abrogated

## CuZn SOD: CuZn superoxide dismutase, O2.- scavenging enzyme
Aorta of SCD mice
  rates of O2.— production enhanced by xanthine: returned to basal rates
HbA and HbS red cells [2]
  rate of .NO consumption: did not impact on the rate of .NO consumption

## heparin
Aortic rings [4]
  restoration of endothelial-dependent relaxation: partially restored endothelial-dependent relaxation; also recorded: significantly reversed
[10]
  effect on XO binding to endothelium: partially displaced
Aortic rings [9]
  reversal of XO-induced reduction of vasodilation in response to acetylcholine: reversible; also recorded: abrogated
